Reference: ChEMBL document CHEMBL4376868, “Structure-Activity Relationship Study of Novel 6-Aryl-2-benzoyl-pyridines as Tubulin Polymerization Inhibitors with Potent Antiproliferative Properties” (J Med Chem, 2020)

What follows are compounds tested on RPMI-7951 (assay: Antiproliferative activity against human RPMI7951 cells measured after 72 hrs by MTS assay). Details: RPMI-7951, 72 h.
Format: functional, cell-based

Structure (SMILES)	IC50
COc1cc(C(=O)c2cncc(-c3ccc(C)c(O)c3)c2)cc(OC)c1OC	0.0636 µM
COc1cc(C(=O)c2cccc(-c3cc(OC)c(OC)c(OC)c3)n2)cc(OC)c1OC	> 1 µM
COc1cc(C(=O)c2cccc(-c3ccccc3C)n2)cc(OC)c1OC	0.0542 µM
COc1cc(C(=O)c2cccc(-c3ccc(C)c(O)c3)c2)cc(OC)c1OC	0.0157 µM
COc1cc(C(=O)c2cccc(-c3ccnc4ccccc34)n2)cc(OC)c1OC	> 1 µM
COc1cc(C(=O)/C=C/c2cccc(-c3ccc(C)c(O)c3)n2)cc(OC)c1OC	> 1 µM
COc1cc(C(=O)c2cccc(-c3cccc(N)c3)n2)cc(OC)c1OC	0.0201 µM
C=C(c1cc(OC)c(OC)c(OC)c1)c1cccc(-c2ccc(C)cc2)n1	0.154 µM
COc1cc(C(=O)c2cccc(-c3ccc(C(N)=O)cc3)n2)cc(OC)c1OC	0.0363 µM
COc1cc(C(=O)c2ccccn2)cc(OC)c1OC	> 1 µM
COc1cc(C(=O)c2cc(O)cc(-c3ccc(C)cc3)n2)cc(OC)c1OC	> 1 µM

Each compound was assayed on MDA-MB-453 (assay: Antiproliferative activity against human MDA-MB-453 cells measured after 72 hrs by MTS assay). Details: MDA-MB-453, 72 h.
Format: functional, cell-based

Structure (SMILES)	IC50
COc1cc(C(=O)c2cncc(-c3ccc(C)c(O)c3)c2)cc(OC)c1OC	0.0648 µM
COc1cc(C(=O)c2cccc(-c3cc(OC)c(OC)c(OC)c3)n2)cc(OC)c1OC	> 1 µM
COc1cc(C(=O)c2cccc(-c3ccc(C)c(O)c3)c2)cc(OC)c1OC	0.0156 µM
COc1cc(C(=O)/C=C/c2cccc(-c3ccc(C)c(O)c3)n2)cc(OC)c1OC	> 1 µM
COc1cc(C(=O)c2ccccn2)cc(OC)c1OC	> 1 µM

Results, then the compound that gave them:

IC50	Structure (SMILES)
0.0583 µM	COc1cc(C(=O)c2cccc(-c3ccccc3C)n2)cc(OC)c1OC
> 1 µM	COc1cc(C(=O)c2cccc(-c3ccnc4ccccc34)n2)cc(OC)c1OC
0.0252 µM	COc1cc(C(=O)c2cccc(-c3cccc(N)c3)n2)cc(OC)c1OC
0.155 µM	C=C(c1cc(OC)c(OC)c(OC)c1)c1cccc(-c2ccc(C)cc2)n1
0.0763 µM	COc1cc(C(=O)c2cccc(-c3ccc(C(N)=O)cc3)n2)cc(OC)c1OC
> 1 µM	COc1cc(C(=O)c2cc(O)cc(-c3ccc(C)cc3)n2)cc(OC)c1OC

These compounds were tested on A-375 (assay: Antiproliferative activity against human A375 cells measured after 72 hrs by MTS assay). Details: A-375, 72 h.
Format: functional, cell-based

Structure (SMILES)	IC50
COc1cc(C(=O)c2cncc(-c3ccc(C)c(O)c3)c2)cc(OC)c1OC	0.0606 µM
COc1cc(C(=O)c2cccc(-c3cc(OC)c(OC)c(OC)c3)n2)cc(OC)c1OC	> 1 µM
COc1cc(C(=O)c2cccc(-c3ccc(C)c(O)c3)c2)cc(OC)c1OC	0.0274 µM
COc1cc(C(=O)/C=C/c2cccc(-c3ccc(C)c(O)c3)n2)cc(OC)c1OC	> 1 µM
COc1cc(C(=O)c2ccccn2)cc(OC)c1OC	> 1 µM

Second part, the compound after the results:

IC50	Structure (SMILES)
0.0525 µM	COc1cc(C(=O)c2cccc(-c3ccccc3C)n2)cc(OC)c1OC
> 1 µM	COc1cc(C(=O)c2cccc(-c3ccnc4ccccc34)n2)cc(OC)c1OC
0.0418 µM	COc1cc(C(=O)c2cccc(-c3cccc(N)c3)n2)cc(OC)c1OC
0.207 µM	C=C(c1cc(OC)c(OC)c(OC)c1)c1cccc(-c2ccc(C)cc2)n1
0.0874 µM	COc1cc(C(=O)c2cccc(-c3ccc(C(N)=O)cc3)n2)cc(OC)c1OC
> 1 µM	COc1cc(C(=O)c2cc(O)cc(-c3ccc(C)cc3)n2)cc(OC)c1OC

These compounds were tested on MDA-MB-231 (assay: Antiproliferative activity against human MDA-MB-231 cells measured after 72 hrs by MTS assay). Details: MDA-MB-231, 72 h.
Format: functional, cell-based

Structure (SMILES)	IC50
COc1cc(C(=O)c2cncc(-c3ccc(C)c(O)c3)c2)cc(OC)c1OC	0.0663 µM
COc1cc(C(=O)c2cccc(-c3cc(OC)c(OC)c(OC)c3)n2)cc(OC)c1OC	> 1 µM
COc1cc(C(=O)c2cccc(-c3ccc(C)c(O)c3)c2)cc(OC)c1OC	0.0359 µM
COc1cc(C(=O)/C=C/c2cccc(-c3ccc(C)c(O)c3)n2)cc(OC)c1OC	> 1 µM
COc1cc(C(=O)c2ccccn2)cc(OC)c1OC	> 1 µM

Other lines, results leading:

IC50	Structure (SMILES)
0.0919 µM	COc1cc(C(=O)c2cccc(-c3ccccc3C)n2)cc(OC)c1OC
> 1 µM	COc1cc(C(=O)c2cccc(-c3ccnc4ccccc34)n2)cc(OC)c1OC
0.0347 µM	COc1cc(C(=O)c2cccc(-c3cccc(N)c3)n2)cc(OC)c1OC
0.159 µM	C=C(c1cc(OC)c(OC)c(OC)c1)c1cccc(-c2ccc(C)cc2)n1
0.0392 µM	COc1cc(C(=O)c2cccc(-c3ccc(C(N)=O)cc3)n2)cc(OC)c1OC
> 1 µM	COc1cc(C(=O)c2cc(O)cc(-c3ccc(C)cc3)n2)cc(OC)c1OC

The compounds below were run on SK-BR-3 (assay: Antiproliferative activity against human SK-BR-3 cells measured after 72 hrs by MTS assay). Details: SK-BR-3, 72 h.
Format: functional, cell-based

Structure (SMILES)	IC50
COc1cc(C(=O)c2cncc(-c3ccc(C)c(O)c3)c2)cc(OC)c1OC	0.0627 µM
COc1cc(C(=O)c2cccc(-c3cc(OC)c(OC)c(OC)c3)n2)cc(OC)c1OC	> 1 µM
COc1cc(C(=O)c2cccc(-c3ccc(C)c(O)c3)c2)cc(OC)c1OC	0.02 µM
COc1cc(C(=O)/C=C/c2cccc(-c3ccc(C)c(O)c3)n2)cc(OC)c1OC	> 1 µM
COc1cc(C(=O)c2ccccn2)cc(OC)c1OC	> 1 µM

Other lines, results leading:

IC50	Structure (SMILES)
0.068 µM	COc1cc(C(=O)c2cccc(-c3ccccc3C)n2)cc(OC)c1OC
> 1 µM	COc1cc(C(=O)c2cccc(-c3ccnc4ccccc34)n2)cc(OC)c1OC
0.0389 µM	COc1cc(C(=O)c2cccc(-c3cccc(N)c3)n2)cc(OC)c1OC
0.186 µM	C=C(c1cc(OC)c(OC)c(OC)c1)c1cccc(-c2ccc(C)cc2)n1
0.0665 µM	COc1cc(C(=O)c2cccc(-c3ccc(C(N)=O)cc3)n2)cc(OC)c1OC
> 1 µM	COc1cc(C(=O)c2cc(O)cc(-c3ccc(C)cc3)n2)cc(OC)c1OC

The compounds below were run on M14 (assay: Antiproliferative activity against human M14 cells measured after 72 hrs by MTS assay). Details: M14, 72 h.
Format: functional, cell-based

Structure (SMILES)	IC50
COc1cc(C(=O)c2cncc(-c3ccc(C)c(O)c3)c2)cc(OC)c1OC	0.0571 µM
COc1cc(C(=O)c2cccc(-c3cc(OC)c(OC)c(OC)c3)n2)cc(OC)c1OC	> 1 µM
COc1cc(C(=O)c2cccc(-c3ccccc3C)n2)cc(OC)c1OC	0.0274 µM
COc1cc(C(=O)c2cccc(-c3ccc(C)c(O)c3)c2)cc(OC)c1OC	0.0162 µM
COc1cc(C(=O)c2cccc(-c3ccnc4ccccc34)n2)cc(OC)c1OC	> 1 µM
COc1cc(C(=O)/C=C/c2cccc(-c3ccc(C)c(O)c3)n2)cc(OC)c1OC	> 1 µM
COc1cc(C(=O)c2cccc(-c3cccc(N)c3)n2)cc(OC)c1OC	0.0259 µM
C=C(c1cc(OC)c(OC)c(OC)c1)c1cccc(-c2ccc(C)cc2)n1	0.167 µM
COc1cc(C(=O)c2cccc(-c3ccc(C(N)=O)cc3)n2)cc(OC)c1OC	0.0479 µM
COc1cc(C(=O)c2ccccn2)cc(OC)c1OC	> 1 µM
COc1cc(C(=O)c2cc(O)cc(-c3ccc(C)cc3)n2)cc(OC)c1OC	> 1 µM
